The values below come from article PMC3130898 (Molecular and biochemical parasitology, 2010).

The target of the assay is T1, Oligopeptidase B (OPB) (Leishmania major, UniProt Q4QHU7).
T1 sequence (Q4QHU7 1-731): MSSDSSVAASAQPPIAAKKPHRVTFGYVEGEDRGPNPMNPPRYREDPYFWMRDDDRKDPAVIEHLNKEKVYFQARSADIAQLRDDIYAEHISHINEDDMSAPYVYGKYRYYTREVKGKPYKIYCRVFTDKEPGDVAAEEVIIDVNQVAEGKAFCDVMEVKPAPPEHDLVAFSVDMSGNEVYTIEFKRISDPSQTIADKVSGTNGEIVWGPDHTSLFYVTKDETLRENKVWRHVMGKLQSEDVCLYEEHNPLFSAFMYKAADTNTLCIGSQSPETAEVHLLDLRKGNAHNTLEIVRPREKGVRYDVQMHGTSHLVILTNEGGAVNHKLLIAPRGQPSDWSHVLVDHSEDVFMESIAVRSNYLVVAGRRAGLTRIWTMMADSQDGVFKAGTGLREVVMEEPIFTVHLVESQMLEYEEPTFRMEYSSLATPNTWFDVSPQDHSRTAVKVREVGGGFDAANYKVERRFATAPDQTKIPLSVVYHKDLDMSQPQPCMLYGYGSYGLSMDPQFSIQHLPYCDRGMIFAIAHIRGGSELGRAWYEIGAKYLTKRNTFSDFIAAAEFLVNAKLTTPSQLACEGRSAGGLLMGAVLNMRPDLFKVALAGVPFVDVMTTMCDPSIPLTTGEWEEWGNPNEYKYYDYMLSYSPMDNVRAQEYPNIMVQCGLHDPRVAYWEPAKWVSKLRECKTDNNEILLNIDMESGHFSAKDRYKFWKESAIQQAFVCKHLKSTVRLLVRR
Put plainly: inhibition of Bz-R-AMC cleavage in live promastigotes. Format: cell-based.

The term IC50 denotes the midpoint of a concentration-inhibition curve. Low readings indicate higher potency, high ones lower potency. The compound `NCCc1ccc(S(=O)(=O)F)cc1` [AEBSF] gave an IC50 of 14.4 µM.
